Assays:
[1] = system: human mammary adenocarcinoma (MCF-7); assay: MTT cell proliferation assay, MCF-7 cells; format: cell-based; details: for IC50: Homo sapiens, MCF7, 72 h treatment, MTT, read-out: IC50, reduction in proliferation
Description: (§1) Antiproliferative Activity, Materials and methods: Human oral squamous carcinoma HEp-2 and human mammary adenocarcinoma (MCF-7) cell lines were obtained from National Centre for Cell Science, Pune, India. Cells were maintained as a monolayer in nutrient media MEM supplemented with heat inactivated fetal bovine serum (HyClone, Utah, USA) (10%), penicillin (100 U/ml) and streptomycin (100 μg/ml) (Invitrogen Life Technologies, MD, USA). The cells were grown at 37° C. in 5% CO2 and humidified air atmosphere. Stock solutions of all the compounds were prepared in DMSO at a concentration of 10-11.5 mM and afterwards diluted to the required concentration. The 3-(4,5-dimethylthiazol-2-yl)-2,5-diphenyltetrazolium bromide (MTT) was dissolved (1 mg/ml) in MEM (without phenol red) and filtered through a Millipore filter, 0.22 μm, before use. MTT Cell Proliferation Assay: (HEp-2) and (MCF-7) cells were plated at a density of 15,000 cells per well in 96 well tissue culture plates. Cells were allowed to adhere for 24 h at 37° C. and then treated with various concentrations (0, 0.1, 1.0, and 10 μM) of compounds dissolved in DMSO for additional 72 h, in triplicates. In the control wells nutrient medium with correspondent concentration of DMSO only was added to the cells. Thereafter cell proliferation was assessed by replacing treatment medium with 50 μL media containing 1 mg/mL MTT and incubated for 4 h at 37° C. Medium was then aspirated off and formazan crystals were solubilized in […] of isopropanol. The optical density was read on a microplate reader at 570 nm using 630 nm as a reference filter against a blank prepared from cell free wells. Absorbance given by cells treated with the carrier DMSO alone was taken as 100% cell growth. All assays were performed in triplicates. Antiproliferative Activity. The antiproliferative activity of both the compounds 2 and 3 were tested against human cancer cells, HEp-2 and MCF-7 which were grown in vitro. Compound (2) up to a concentration of 10 μM had no effect on the survival of HEp-2 and MCF-7 cells. […] IC50 value for compound (2) was between 2-3 μM.

[2] = system: Human oral squamous carcinoma HEp-2; assay: MTT cell proliferation assay, HEp-2 cells; format: cell-based; details: for IC50: Homo sapiens, 72 h treatment, MTT, read-out: IC50, reduction in proliferation
Description: as §1

Compound	IC50 [1]	effect on survival of cells ([1]; up to a concentration of 10 μM)	IC50 [2]	effect on survival of cells ([2]; up to a concentration of 10 μM)	melting point	reduction in proliferation ([1]; 0.1-10 μM, 72 h)	growth inhibition at 10 μM ([1]; at 10 μM concentration, 72 h)	reduction in proliferation ([2]; 0.1-10 μM, 72 h)	growth inhibition at 10 μM ([2]; at 10 μM concentration, 72 h)
C[C@H](CCC(=O)NCCNC(=O)CC[C@@H](C)[C@H]1CCC2C3C(C[C@H](O)[C@@]21C)[C@@]1(C)CC[C@@H](O)CC1C[C@H]3O)[C@H]1CCC2C3C(C[C@H](O)[C@@]21C)[C@@]1(C)CC[C@@H](O)CC1C[C@H]3O (stereo partly drawn) [Compound 2, N^1,N^2-Ethylenediamine bis [cholic acid amide]]	2000 to 3000 nM	no effect	2000 to 3000 nM	no effect	205 °C	–	–	–	–
C[C@H](CCC(=O)NCCNC(=O)CC[C@@H](C)[C@H]1CCC2C3CCC4C[C@H](O)CC[C@]4(C)C3C[C@H](O)[C@@]21C)[C@H]1CCC2C3CCC4C[C@H](O)CC[C@]4(C)C3C[C@H](O)[C@@]21C (stereo partly drawn) [Compound 3, N^1,N^2-Ethylenediamine bis [deoxycholic acid amide]]	2000 to 4000 nM	–	2000 to 4000 nM	–	170 °C	significant reduction	totally inhibited	significant reduction	totally inhibited

— patent publication US20060003974A1, “Bile acid derived steroidal dimers with amphiphilic topology having antiproliferative activity” (COUNCIL OF SCIENTIFIC AND INDUSTRIAL RESEARCH, priority 2004, published 2006)
